This is an account of results in US20250235533A1, “INJECTABLE PROLONGED-RELEASE HYDROGEL FORMULATIONS OF TOLL-LIKE RECEPTOR AGONISTS FOR INTRATUMORAL INJECTION TO INCREASE IMMUNOTHERAPY RESPONSE” (priority 2024, published 2025).

Data set [1] is described as follows: In vitro release studies. The data set is classed as physicochemical. The protocol: Drug release kinetics of imiquimod from various […] formulations were studied by placing aliquots of drug-loaded hydrogel into 50 mL conical tubes at 100 rpm at 37° C., releasing drug into DPBS. 50 μL of […] were added to the bottom of 50 mL conical Falcon tubes or in a dialysis tubing (D-tube Dialyzer Maxi, MWCO 3.5 kDa) at room temperature and brought to gel state by incubating at 37° C. for 30 min while DPBS as receiving fluid was preheated at the same temperature. After […] solidified, 50 mL DPBS (pH 7.4), Lactated […]), or Acetate Buffer (pH 5, 0.03 m Acetic acid, and 0.07 m Sodium Acetate in DI water) were added slowly to the conical tubes. These containers were then incubated at 37° C. under shaking at 100 rpm. 400 μL samples were taken from the receiving fluid with a 1 mL syringe through 0.2 μm filters (PALL super membrane low protein binding non-pyrogenic) to avoid accidental removal of gel. Concentration of imiquimod in the samples was assessed eluting the samples on an Agilent 1100 high-performance liquid chromatography (HPLC) with UV detector at 242 nm over an Eclipse XD8-C18 column (150×4.6 mm, 3.5 μm pore size) with an acetonitrile/water gradient from 5/95 to 95/5 over 6 min at 1 mL mi-1 n. […] Concentrations were calculated from UV signals using a calibration curve of known concentration imiquimod standards in DMSO/Acetonitrile.

The conditions of data set [2]: cited from earlier work.
The subject of data set [3] is CT-26 tumors. Description: Dual tumor model survival study, CT-26. The data set is classed as in vivo, balb/c mice. As to conditions: CT-26 model. As for the experimental part: Per experimental arm 10-15 Balb c^−1 mice were injected with approximately 10^6 cells of CT-26 or EMT-6 cells, day 0 (FIG. 6) in bilateral flanks. Immunotherapy (anti-PD-1 (3.9 mg mL^−1), anti-CTLA-4 (2.2 mg mL^−1) co-immunotherapy was given intraperitoneally (Sigma-Aldrich) every 3 days from day 3-12. Mice with primary and contralateral tumors of at least 6 mm were chosen to be randomized to various treatment arms evaluating CPI with and without cryoablation, imiquimod drug-only injection, PLGA-PEG-PLGA only injection, or imigel (3:1) injection. The imigel, gel alone, or serial imiquimod suspensions were injected as 50 μL injections using a 26-gauge needle. For cryoablation, parameters included a 30 s freeze, followed by 2 min thaw, followed by a 30 s freeze with goal of approximately 50% tumoral freezing. When using cryoablation, the drug formulations were injected 5 min post final freeze, with a mild pause during injection to ensure no push back via the tract into the remaining viable tumor. Imiquimod alone was prepared as a suspension by 30 min of sonication at 1 mg mL^−1 in normal saline. Injections for imiquimod alone were done as a total 50 μL 1 mg mL^−1 injections once per day for six total doses. Specifically, Imigel delivered a total of 300 μg in one injection in two 25 μL injection depots within the tumor at the same injection session for only one session. […]

Data set [4] in a line: Solubility / encapsulation of immunoadjuvant in PLGA-PEG-PLGA micelles. The data set is classed as physicochemical. As for the experimental part:
Typically, 1 g of PLGA-PEG-PLGA was dissolved in 4 ml 0.9% saline solution (Baxter, Deerfield, IL) to obtain a 25% weight/volume (w/v) concentration at 4° C. over 2 days and vortexed/stirred daily. Importantly, the normal saline cannot contain the preservative phenol, commonly found in preservative containing commercial saline solutions. After a homogeneous hydrogel solution was observed by stirring with a spatula, imiquimod was added at 24 mg to the batch, the dispersion was vortexed and allowed to dissolve at room temperature over 2 days. Some of the gels received Iopamidol as contrast agent at 100 mg mL^−1, which was left to disperse or dissolve over 1 day. The resulting Imigel or Imigel+Iopamidol was stored at room temperature, shielded from evaporation, and used within 1 week from full dissolution to prevent hydrolysis. (FIGS. 3A-3E).

Data set [5] concerns CD8+ T cells in CT-26 tumors. The data set can be described thus: Intratumoral flow cytometry, CT-26 model. The data set is classed as in vivo, mice. The settings on record: compared to CPI only. The protocol: Additional groups of 4 mice were injected with CT-26 and treated as above. 6 days post local intervention, mice were euthanized, and ipsilateral and contralateral tumors excised. In all cases of this example, tumor samples were minced and then incubated in a collagenase solution (1 mg mL^−1 in RPMI—1640) for approximately 45 min at 37° C. Tumors were processed into a single cell suspension using a 70 μm cell strainer.
For flow cytometry, using the cells harvested as above, cell viability was assessed by trypan blue staining, and 1×10^6 viable cells were stained for flow cytometry analysis. Cells were washed with PBS and stained with a 1:1000 solution of ZOMBIE Aqua (from […], Biolegend) and incubated on ice for 15 min. […] Cells were resuspended in cell staining buffer, and the samples were analyzed on an Aurora (Cytek Biotechnology). […] Gating for individual markers was determined by fluorescent minus one (FMO) control panels and unstained controls. […]
(In general: In flow cytometry, cells or beads pass a laser one at a time.)

Take `O=S(=O)([O-])[O-].[Ba+2]` [barium sulfate]: the “effect on release profile of imiquimod from injectable composition” value in data set [1] (phosphate buffer solution at 37 degrees C) is given as “does not significantly change the release profile of imiquimod”.

Take `CC(C)Cn1cnc2c(N)nc3ccccc3c21` [imiquimod]: the solubility in saline entry in data set [2] is “around 0.002 mg mL^−1”. Moreover, the 90-day survival in data set [3] (serial imiquimod (6 daily injections) with CPI and cryoablation) was 46.7%; in data set [3] (serial imiquimod (6 daily injections) with CPI, no cryoablation), 57%. In data set [4] (PLGA1.5k-PEG1.5k-PLGA1.5k micelles (hydrogel solution), aqueous with cosolvent or surfactant or cyclodextrin, thermodynamic from solid, in PLGA1.5k-PEG1.5k-PLGA1.5k micelles, read-out: concentration uniformly solubilized), the solubility at 2 days is approximately 6000 µg/mL. Moreover, the “increase of aqueous solubility” value in data set [4] (encapsulated in micellar structure of PLGA-PEG-PLGA) is “approximately 2000 fold”. Besides, in data set [5], the “percentage of activated CD8+ T cells (dual CD44+PD1+ among CD8+ T-cells)” value is recorded as “significant increase”.

As to `CCCN(CCC)C(=O)C1=Cc2ccc(-c3ccc(C(=O)N4CCCC4)cc3)cc2N=C(N)C1` [motolimod], in data set [1] (into PBS, PLGA-PEG-PLGA 1600-1500-1600 and 1500-1500-1500), the “release profile of motolimod” value is “relatively extended”. Further, the encapsulation entry in data set [4] (motolimod in PLGA-PEG-PLGA injectable composition) is recorded as “around 6 mg/mL”.
